Results as given in ChEMBL document CHEMBL1201862, “PubChem BioAssay data set” (2004).
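Growth conditions: 96-well plates. Treatment: test compound, 48 hours, 5 concentrations. Analysis: linear interpolation between bracketing concentrations; unreached endpoints set to highest concentration. Here, GI50 denotes the concentration required for 50% inhibition of growth.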 Calls of active or inactive are those of the source. Rule as the data show it: active = GI50 up to about 1.1 µM and inactive = higher.

Assays:
Test in all cases: inhibition of tumour cell growth, NCI panel, 48 h
A549 = system: A549
ACHN = system: ACHN
CCRF-CEM = system: CCRF-CEM
COLO 205 = system: COLO 205
DMS-114 = system: DMS-114
DMS-273 = system: DMS-273
EKVX = system: EKVX
HCC 2998 = system: HCC 2998
HCT-116 = system: HCT-116
HCT-15 = system: HCT-15
HL-60 = system: HL-60
HOP-18 = system: HOP-18
HOP-62 = system: HOP-62
HOP-92 = system: HOP-92
HT-29 = system: HT-29
IGROV-1 = system: IGROV-1
K562 = system: K562
KM-20L2 = system: KM-20L2
KM12 = system: KM12
LOX IMVI = system: LOX IMVI
LXFL 529 = system: LXFL 529
M14 = system: M14
MOLT-4 = system: MOLT-4
NCI-H23 = system: NCI-H23
NCI-H460 = system: NCI-H460
OVCAR-3 = system: OVCAR-3
OVCAR-4 = system: OVCAR-4
OVCAR-5 = system: OVCAR-5
OVCAR-8 = system: OVCAR-8
RPMI-8226 = system: RPMI-8226
RXF 393 = system: RXF 393
SF-268 = system: SF-268
SF-539 = system: SF-539
SK-MEL-28 = system: SK-MEL-28
SK-MEL-2 = system: SK-MEL-2
SK-MEL-5 = system: SK-MEL-5
SN12C = system: SN12C
SNB-19 = system: SNB-19
SNB-75 = system: SNB-75
SNB-78 = system: SNB-78
SR = system: SR
SW-620 = system: SW-620
TK-10 = system: TK-10
U-251 = system: U-251
UACC-257 = system: UACC-257
UACC-62 = system: UACC-62
UO-31 = system: UO-31
786-0 = system: 786-0
A498 = system: A498
CAKI-1 = system: CAKI-1
DLD-1 = system: DLD-1
M19-MEL = system: M19-MEL
Malme-3M = system: Malme-3M
NCI-H226 = system: NCI-H226
NCI-H522 = system: NCI-H522
SF-295 = system: SF-295
SK-OV-3 = system: SK-OV-3

With CCc1nnc(-c2nsc3ccccc23)s1 the GI50 (A549) was > 100 µM (inactive), the GI50 (ACHN) was > 100 µM (inactive) and the GI50 (CCRF-CEM) was 42.5 µM (inactive). The GI50 (COLO 205) was > 100 µM (inactive), the GI50 (DMS-114) was > 100 µM (inactive) and the GI50 (DMS-273) was > 100 µM (inactive). For the same compound, the GI50 (EKVX) was 23 µM (inactive), the GI50 (HCC 2998) was > 100 µM (inactive) and the GI50 (HCT-116) was > 100 µM (inactive). The GI50 (HCT-15) was 72.4 µM, the GI50 (HL-60) was > 100 µM (inactive) and the GI50 (HOP-18) was > 100 µM (inactive). For the same compound, the GI50 (HOP-62) was > 100 µM (inactive), the GI50 (HOP-92) was 69.5 µM (inactive) and the GI50 (HT-29) was > 100 µM (inactive). The GI50 (IGROV-1) was 76.9 µM (inactive), the GI50 (K562) was 54.7 µM (inactive) and the GI50 (KM-20L2) was 63.5 µM (inactive). For the same compound, the GI50 (KM12) was > 100 µM (inactive), the GI50 (LOX IMVI) was > 100 µM (inactive) and the GI50 (LXFL 529) was > 100 µM (inactive). The GI50 (M14) was > 100 µM (inactive), the GI50 (MOLT-4) was 38.5 µM (inactive) and the GI50 (NCI-H23) was > 100 µM (inactive). The GI50 (NCI-H460) was > 100 µM (inactive), the GI50 (OVCAR-3) was 24.1 µM (inactive) and the GI50 (OVCAR-4) was > 100 µM (inactive). For the same compound, the GI50 (OVCAR-5) was > 100 µM (inactive), the GI50 (OVCAR-8) was > 100 µM (inactive) and the GI50 (RPMI-8226) was 45.4 µM (inactive). The GI50 (RXF 393) was > 100 µM (inactive), the GI50 (SF-268) was > 100 µM (inactive) and the GI50 (SF-539) was > 100 µM (inactive). For the same compound, the GI50 (SK-MEL-28) was > 100 µM (inactive), the GI50 (SK-MEL-2) was > 100 µM (inactive) and the GI50 (SK-MEL-5) was > 100 µM (inactive). For the same compound, the GI50 (SN12C) was > 100 µM (inactive), the GI50 (SNB-19) was > 100 µM (inactive) and the GI50 (SNB-75) was 35.9 µM (inactive). For the same compound, the GI50 (SNB-78) was > 100 µM (inactive), the GI50 (SR) was 53 µM (inactive) and the GI50 (SW-620) was > 100 µM (inactive). The GI50 (TK-10) was > 100 µM (inactive), the GI50 (U-251) was > 100 µM (inactive) and the GI50 (UACC-257) was > 100 µM (inactive). For the same compound, the GI50 (UACC-62) was > 100 µM (inactive) and the GI50 (UO-31) was 34 µM (inactive).
With Cc1ccc(-c2cc(O)c3cc4c(cc3n2)OCO4)cc1 the GI50 (786-0) was 1.78 µM (inactive), the GI50 (A498) was 0.615 µM (active) and the GI50 (A549) was 2.02 µM (inactive). The GI50 (ACHN) was 7.67 µM (inactive), the GI50 (CAKI-1) was 3.52 µM (inactive) and the GI50 (CCRF-CEM) was 1.05 µM (active). For the same compound, the GI50 (COLO 205) was 0.63 µM (active), the GI50 (DLD-1) was 0.859 µM (active) and the GI50 (DMS-114) was 2.48 µM (inactive). The GI50 (DMS-273) was 1.35 µM (inactive), the GI50 (EKVX) was 4.05 µM (inactive) and the GI50 (HCC 2998) was 1.42 µM (inactive). For the same compound, the GI50 (HCT-116) was 1.24 µM (inactive), the GI50 (HCT-15) was 0.501 µM and the GI50 (HL-60) was 0.43 µM (active). For the same compound, the GI50 (HOP-18) was 3.07 µM (inactive), the GI50 (HOP-62) was 2.25 µM (inactive) and the GI50 (HOP-92) was 1.87 µM (inactive). For the same compound, the GI50 (HT-29) was 2.18 µM (inactive), the GI50 (IGROV-1) was 3.48 µM (inactive) and the GI50 (K562) was 0.705 µM (active). For the same compound, the GI50 (KM-20L2) was 1.67 µM (inactive), the GI50 (KM12) was 0.836 µM (active) and the GI50 (LOX IMVI) was 2.67 µM (inactive). For the same compound, the GI50 (LXFL 529) was 0.748 µM (active), the GI50 (M14) was 0.817 µM (active) and the GI50 (M19-MEL) was 0.805 µM (active). For the same compound, the GI50 (MOLT-4) was 2.72 µM (inactive), the GI50 (Malme-3M) was 0.52 µM (active) and the GI50 (NCI-H226) was 1.63 µM (inactive). The GI50 (NCI-H23) was 0.916 µM (active), the GI50 (NCI-H460) was 0.82 µM (active) and the GI50 (NCI-H522) was 1.63 µM (inactive). For the same compound, the GI50 (OVCAR-3) was 0.929 µM (active), the GI50 (OVCAR-4) was 8.97 µM (inactive) and the GI50 (OVCAR-5) was 2.61 µM (inactive). The GI50 (OVCAR-8) was 3.2 µM (inactive), the GI50 (RPMI-8226) was 2.13 µM (inactive) and the GI50 (RXF 393) was 1.44 µM (inactive). The GI50 (SF-268) was 2.96 µM (inactive), the GI50 (SF-295) was 2.02 µM (inactive) and the GI50 (SF-539) was 1.31 µM (inactive). The GI50 (SK-MEL-28) was 2.67 µM (inactive), the GI50 (SK-MEL-2) was 1.72 µM (inactive) and the GI50 (SK-MEL-5) was 0.35 µM (active). The GI50 (SK-OV-3) was 1.45 µM (inactive), the GI50 (SN12C) was 2.56 µM (inactive) and the GI50 (SNB-19) was 3.12 µM (inactive). The GI50 (SNB-75) was 1.37 µM (inactive), the GI50 (SR) was 0.973 µM (active) and the GI50 (SW-620) was 0.482 µM (active). The GI50 (TK-10) was 7.66 µM (inactive), the GI50 (U-251) was 1.59 µM (inactive) and the GI50 (UACC-257) was > 100 µM (inactive). The GI50 (UACC-62) was 0.729 µM (active) and the GI50 (UO-31) was > 21.3 µM (inactive).
